# Test results reported in PubChem BioAssay (NCI).
#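 Method: 48-hour compound exposure of cells in 96-well plates, five concentrations, linear interpolation of endpoints. TGI is the concentration that stops growth completely.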
# Experiments:
# Experiment in all cases: DTP human tumour cell line panel, 48 h
# A498 renal = system: A498 renal
# ACHN renal = system: ACHN renal
# BT-549 breast = system: BT-549 breast
# CCRF-CEM leukemia = system: CCRF-CEM leukemia
# COLO 205 colon = system: COLO 205 colon
# HT29 colon = system: HT29 colon
# NCI-H23 lung = system: NCI-H23 lung
# OVCAR-3 ovarian = system: OVCAR-3 ovarian
# SF-295 CNS = system: SF-295 CNS
# SF-539 CNS = system: SF-539 CNS
# SK-MEL-5 melanoma = system: SK-MEL-5 melanoma
# T-47D breast = system: T-47D breast
# UACC-257 melanoma = system: UACC-257 melanoma
# UACC-62 melanoma = system: UACC-62 melanoma
# K-562 leukemia = system: K-562 leukemia
# NCI-H460 lung = system: NCI-H460 lung
# SN12C renal = system: SN12C renal
# SNB-75 CNS = system: SNB-75 CNS
compound,measurement,setting,value
C#CCNCC(=O)O,TGI,A498 renal,> 100 µM
same,TGI,ACHN renal,> 100 µM
same,TGI,BT-549 breast,> 100 µM
same,TGI,CCRF-CEM leukemia,> 100 µM
same,TGI,COLO 205 colon,> 100 µM
same,TGI,HT29 colon,> 100 µM
same,TGI,NCI-H23 lung,> 100 µM
same,TGI,OVCAR-3 ovarian,> 100 µM
same,TGI,SF-295 CNS,> 100 µM
same,TGI,SF-539 CNS,> 100 µM
same,TGI,SK-MEL-5 melanoma,> 100 µM
same,TGI,T-47D breast,> 100 µM
same,TGI,UACC-257 melanoma,> 100 µM
same,TGI,UACC-62 melanoma,> 100 µM
CC(=O)O[C@H]1[C@@H](OC2CCCC2(c2ccccc2)c2ccccc2)O[N+]([O-])=C[C@@H]1c1ccccc1 (some centres not stated),TGI,A498 renal,23.4 µM
same,TGI,ACHN renal,12.5 µM
same,TGI,BT-549 breast,17.5 µM
same,TGI,CCRF-CEM leukemia,14 µM
same,TGI,COLO 205 colon,> 46 µM
same,TGI,HT29 colon,6.94 µM
same,TGI,K-562 leukemia,> 32.9 µM
same,TGI,NCI-H23 lung,35.9 µM
same,TGI,NCI-H460 lung,60.2 µM
same,TGI,OVCAR-3 ovarian,21 µM
same,TGI,SF-295 CNS,21.7 µM
same,TGI,SK-MEL-5 melanoma,25.6 µM
same,TGI,SN12C renal,16.9 µM
same,TGI,SNB-75 CNS,18 µM
same,TGI,T-47D breast,> 37.9 µM
same,TGI,UACC-257 melanoma,23.6 µM
same,TGI,UACC-62 melanoma,15.7 µM
CCc1n[nH]c(=O)n1-n1c(C)ccc1C,TGI,A498 renal,> 100 µM
same,TGI,ACHN renal,> 100 µM
same,TGI,BT-549 breast,> 100 µM
same,TGI,CCRF-CEM leukemia,> 100 µM
same,TGI,COLO 205 colon,> 100 µM
same,TGI,HT29 colon,> 100 µM
same,TGI,K-562 leukemia,> 100 µM
same,TGI,NCI-H460 lung,> 100 µM
same,TGI,OVCAR-3 ovarian,> 100 µM
same,TGI,SF-295 CNS,> 100 µM
same,TGI,SK-MEL-5 melanoma,> 100 µM
same,TGI,SN12C renal,> 100 µM
same,TGI,SNB-75 CNS,> 100 µM
same,TGI,T-47D breast,> 100 µM
same,TGI,UACC-257 melanoma,> 100 µM
same,TGI,UACC-62 melanoma,> 100 µM
Cc1ccc(N=NC(=O)NNc2ccc(C)cc2Br)c(Br)c1,TGI,A498 renal,52.3 µM
same,TGI,ACHN renal,89.1 µM
same,TGI,BT-549 breast,89.3 µM
same,TGI,CCRF-CEM leukemia,21 µM
same,TGI,HT29 colon,> 100 µM
same,TGI,K-562 leukemia,51.5 µM
same,TGI,NCI-H23 lung,> 100 µM
same,TGI,NCI-H460 lung,47.3 µM
same,TGI,OVCAR-3 ovarian,41.2 µM
same,TGI,SK-MEL-5 melanoma,33.9 µM
same,TGI,SN12C renal,51.2 µM
same,TGI,SNB-75 CNS,> 100 µM
same,TGI,T-47D breast,> 100 µM
same,TGI,UACC-257 melanoma,79.8 µM
same,TGI,UACC-62 melanoma,36.1 µM
CN(C)/C=N/c1cc(=O)n(C)c(=O)n1C,TGI,A498 renal,> 100 µM
same,TGI,ACHN renal,> 100 µM
same,TGI,BT-549 breast,> 100 µM
same,TGI,CCRF-CEM leukemia,> 100 µM
same,TGI,COLO 205 colon,> 100 µM
same,TGI,HT29 colon,> 100 µM
same,TGI,K-562 leukemia,> 100 µM
same,TGI,NCI-H23 lung,> 100 µM
same,TGI,NCI-H460 lung,> 100 µM
same,TGI,OVCAR-3 ovarian,> 100 µM
same,TGI,SF-295 CNS,> 100 µM
same,TGI,SF-539 CNS,> 100 µM
same,TGI,SK-MEL-5 melanoma,> 100 µM
same,TGI,SN12C renal,> 100 µM
same,TGI,SNB-75 CNS,> 100 µM
same,TGI,T-47D breast,> 100 µM
same,TGI,UACC-257 melanoma,> 100 µM
same,TGI,UACC-62 melanoma,> 100 µM
O=[N+]([O-])c1ccc(C2=NOC(c3ccccc3)N2C23CC4CC(CC(C4)C2)C3)cc1 (configuration not stated),TGI,A498 renal,> 100 µM
same,TGI,ACHN renal,> 100 µM
same,TGI,BT-549 breast,46 µM
same,TGI,CCRF-CEM leukemia,47.5 µM
same,TGI,COLO 205 colon,88.1 µM
same,TGI,HT29 colon,44.6 µM
same,TGI,K-562 leukemia,39.9 µM
same,TGI,NCI-H23 lung,> 100 µM
same,TGI,NCI-H460 lung,47.5 µM
same,TGI,OVCAR-3 ovarian,50.1 µM
same,TGI,SF-295 CNS,66.6 µM
same,TGI,SF-539 CNS,> 100 µM
same,TGI,SK-MEL-5 melanoma,38.4 µM
same,TGI,SN12C renal,> 100 µM
same,TGI,SNB-75 CNS,63.7 µM
same,TGI,T-47D breast,> 100 µM
same,TGI,UACC-257 melanoma,> 100 µM
same,TGI,UACC-62 melanoma,85.8 µM
C=CC(=O)C#Cc1cnc(OC)nc1OC,TGI,A498 renal,> 69.1 µM
same,TGI,ACHN renal,23.6 µM
same,TGI,BT-549 breast,17.5 µM
same,TGI,CCRF-CEM leukemia,2.97 µM
same,TGI,COLO 205 colon,13.3 µM
same,TGI,HT29 colon,> 54.4 µM
same,TGI,K-562 leukemia,3.84 µM
same,TGI,NCI-H23 lung,37.6 µM
same,TGI,NCI-H460 lung,> 59.9 µM
same,TGI,OVCAR-3 ovarian,33.7 µM
same,TGI,SF-295 CNS,> 100 µM
same,TGI,SF-539 CNS,30.5 µM
same,TGI,SK-MEL-5 melanoma,43.5 µM
same,TGI,SN12C renal,37.7 µM
same,TGI,SNB-75 CNS,20.5 µM
same,TGI,T-47D breast,55.8 µM
same,TGI,UACC-257 melanoma,20.3 µM
same,TGI,UACC-62 melanoma,34.4 µM
CNc1ccc(C)cc1S(=O)(=O)c1ccccc1[N+](=O)[O-],TGI,A498 renal,> 100 µM
same,TGI,ACHN renal,> 100 µM
same,TGI,BT-549 breast,> 100 µM
same,TGI,CCRF-CEM leukemia,> 100 µM
same,TGI,COLO 205 colon,> 100 µM
same,TGI,HT29 colon,> 100 µM
same,TGI,K-562 leukemia,> 100 µM
same,TGI,NCI-H23 lung,> 100 µM
same,TGI,NCI-H460 lung,> 100 µM
same,TGI,OVCAR-3 ovarian,> 100 µM
same,TGI,SF-295 CNS,> 100 µM
same,TGI,SF-539 CNS,> 100 µM
same,TGI,SK-MEL-5 melanoma,46.1 µM
same,TGI,SN12C renal,> 100 µM
same,TGI,SNB-75 CNS,> 100 µM
same,TGI,T-47D breast,> 100 µM
same,TGI,UACC-62 melanoma,> 100 µM
Cn1c(=O)oc2cc(C(O)CN3CCN(Cc4ccc5c(c4)OCO5)CC3)ccc21 (configuration not stated),TGI,A498 renal,> 100 µM
same,TGI,ACHN renal,> 100 µM
same,TGI,BT-549 breast,> 100 µM
same,TGI,CCRF-CEM leukemia,> 100 µM
same,TGI,COLO 205 colon,> 100 µM
same,TGI,HT29 colon,> 100 µM
same,TGI,K-562 leukemia,> 100 µM
same,TGI,NCI-H23 lung,> 100 µM
same,TGI,NCI-H460 lung,> 100 µM
same,TGI,OVCAR-3 ovarian,> 100 µM
same,TGI,SF-295 CNS,> 100 µM
same,TGI,SF-539 CNS,> 100 µM
same,TGI,SN12C renal,> 100 µM
same,TGI,SNB-75 CNS,> 100 µM
same,TGI,T-47D breast,> 100 µM
same,TGI,UACC-257 melanoma,> 100 µM
same,TGI,UACC-62 melanoma,> 100 µM
C=C1[C@@H](OC(C)=O)/C=C/C2C3C(=O)[C@@](C)(OC(C)=O)[C@H]([C@H](OC(C)=O)[C@]4(O)[C@@H](C)C(=O)O[C@H]4[C@H]1Cl)[C@@]23C (some centres not stated),TGI,A498 renal,> 100 µM
same,TGI,ACHN renal,> 100 µM
same,TGI,BT-549 breast,> 100 µM
same,TGI,CCRF-CEM leukemia,> 100 µM
same,TGI,COLO 205 colon,> 100 µM
same,TGI,HT29 colon,> 100 µM
same,TGI,K-562 leukemia,> 100 µM
same,TGI,NCI-H23 lung,> 100 µM
same,TGI,NCI-H460 lung,> 100 µM
same,TGI,OVCAR-3 ovarian,> 100 µM
same,TGI,SF-295 CNS,> 100 µM
same,TGI,SK-MEL-5 melanoma,> 100 µM
same,TGI,SN12C renal,> 100 µM
same,TGI,SNB-75 CNS,> 100 µM
same,TGI,T-47D breast,> 100 µM
same,TGI,UACC-257 melanoma,> 100 µM
same,TGI,UACC-62 melanoma,> 100 µM
O=C(N[C@H](CO)[C@H](O)c1ccc([N+](=O)[O-])cc1)C(Cl)Cl,TGI,A498 renal,> 100 µM
same,TGI,ACHN renal,> 100 µM
same,TGI,BT-549 breast,> 100 µM
same,TGI,CCRF-CEM leukemia,> 100 µM
same,TGI,COLO 205 colon,> 100 µM
same,TGI,HT29 colon,> 100 µM
same,TGI,K-562 leukemia,> 100 µM
same,TGI,NCI-H23 lung,> 100 µM
same,TGI,NCI-H460 lung,> 100 µM
same,TGI,OVCAR-3 ovarian,> 100 µM
same,TGI,SF-295 CNS,> 100 µM
same,TGI,SF-539 CNS,> 100 µM
same,TGI,SK-MEL-5 melanoma,> 100 µM
same,TGI,SN12C renal,> 100 µM
same,TGI,SNB-75 CNS,> 100 µM
same,TGI,UACC-257 melanoma,> 100 µM
same,TGI,UACC-62 melanoma,> 100 µM
C=C(C)C1Cc2c(cc3c(c2O)c(=O)c2ccccc2n3C)O1 (configuration not stated),TGI,A498 renal,22.1 µM
same,TGI,ACHN renal,35.7 µM
same,TGI,BT-549 breast,3.28 µM
same,TGI,COLO 205 colon,12.3 µM
same,TGI,HT29 colon,7.32 µM
same,TGI,NCI-H23 lung,5.34 µM
same,TGI,NCI-H460 lung,19 µM
same,TGI,OVCAR-3 ovarian,27.9 µM
same,TGI,SF-295 CNS,18.2 µM
same,TGI,SF-539 CNS,5.99 µM
same,TGI,SK-MEL-5 melanoma,8.02 µM
same,TGI,SN12C renal,7.52 µM
same,TGI,SNB-75 CNS,17 µM
same,TGI,T-47D breast,21 µM
same,TGI,UACC-257 melanoma,30.7 µM
same,TGI,UACC-62 melanoma,7.57 µM
CC(C)=NC(C(=O)O)C(C)(C)S (configuration not stated),TGI,A498 renal,> 100 µM
same,TGI,ACHN renal,> 100 µM
same,TGI,BT-549 breast,> 100 µM
same,TGI,CCRF-CEM leukemia,> 100 µM
same,TGI,COLO 205 colon,> 100 µM
same,TGI,HT29 colon,> 100 µM
same,TGI,K-562 leukemia,> 100 µM
same,TGI,NCI-H23 lung,> 100 µM
same,TGI,NCI-H460 lung,> 100 µM
same,TGI,OVCAR-3 ovarian,> 100 µM
same,TGI,SF-295 CNS,> 100 µM
same,TGI,SF-539 CNS,> 100 µM
same,TGI,SN12C renal,> 100 µM
same,TGI,SNB-75 CNS,> 100 µM
same,TGI,T-47D breast,> 100 µM
same,TGI,UACC-257 melanoma,> 100 µM
same,TGI,UACC-62 melanoma,> 100 µM
